Details of data set [1]: method as in earlier work. The following applies: cited from earlier work.
The test system of another data set is S. mansoni. To be noted: cited from earlier work.
On the set-up of data set [2]: method as in PMID 21596127. To be noted: oral Pheroid technology formulation, mice; cited from earlier work.
Data set [3] has as its system P. falciparum NF54 parasites. As to the kind of experiment: In vitro efficacy on P. falciparum in culture. It counts as cell-based, Plasmodium falciparum. To be noted: 48 h. The procedure:
P. falciparum NF54 parasites were cultivated at 4% hematocrit in RPMI 1640 medium, 0.5% Albumax II (Invitrogen, Carlsbad, CA, USA), 0.25% sodium bicarbonate, and 0.1 mg/mL gentamicin. 200 µL of parasite suspension at 1% parasitemia were incubated in a Nunc microplate, in 96 flat-bottom wells, at 37 °C, in an atmosphere of 5% oxygen, 5% carbon dioxide and 90% nitrogen. Drug dilutions were added in triplicates in 25 µL. After 48 h P. falciparum parasitaemias were estimated by microscopic determination of the percent of parasitized erythrocytes in a total of 5000 erythrocytes, using Giemsa stained blood smears that were prepared from triplicate individual wells.

The conditions of data set [4]: H2O; cited from earlier work.
A short description of data set [5]: Solubility of artemisone in organic solvents, excipients and SMEDDS (HPLC). It counts as physicochemical. The following applies: thermodynamic from solid. Here is the method:
The solubility of artemisone in organic solvents and lipid excipients was determined according to the following procedure: 200 mg artemisone/1.0 mL excipient were placed on an orbital mixing heating plate (Torrey Pines Scientific, Carlsbad, CA, USA) at 25 °C for 24 h under light exclusion. Samples were centrifuged and the supernatant filtered and diluted with ethanol as necessary before HPLC analysis. Samples were prepared in triplicates.
(§1) Artemisone was quantified with high-performance liquid chromatography (HPLC) (Agilent/HP 1100 HPLC series, high-pressure pump, degasser, UV-VIS detector and autosampler, now Agilent Technologies, Inc., Santa Clara, CA, USA), using a method we developed and validated according to the ICH guidelines, over a range of 10–500 µg artemisone/mL (Table 1).

A short description of data set [6]: Storage stability of artemisone in SMEDDS and PBS at 30 °C (HPLC). It counts as physicochemical. To be noted: 80 µg/mL in PBS pH 6.5, 30 °C, light exclusion. Here is the method:
as §1
Artemisone (50 mg/g) was dissolved in SMEDDS-100. For SMEDDS-50-ART and SMEDDS-20-ART, PBS was added to the drug-loaded formulation to give the microemulsions, containing 25 mg/g and 10 mg/g artemisone, respectively. A solution of 80 µg/mL artemisone in PBS pH 6.5 Ph.Eur. was prepared and used as control, the pH found for SMEDDS-50 and SMEDDS-20 also being around 6.5. Triplicates of all three preparations were stored in glass vials with Teflon sealed lids at 30 °C under light exclusion. Samples were taken after 14, 28, 42, 56, and 92 days and analyzed via HPLC to monitor drug stability.

The mark [7] stands for this setting: similar procedure (single oral dose).

Consider four compounds from article PMC7356104, “Oral Administration of Artemisone for the Treatment of Schistosomiasis: Formulation Challenges and In Vivo Efficacy” (Pharmaceutics, 2020).

Structures are written as SMILES. Converted amounts (≈) assume the structure as drawn. Like-named read-outs stand apart in the source and are kept apart here.

The aqueous solubility is the concentration that dissolves in the medium under given conditions. What is called solubility is the dissolved amount per volume that the medium holds.

In the case of `C[C@H]1[C@H](N2CCS(=O)(=O)CC2)O[C@@H]2O[C@@]3(C)CC[C@H]4[C@H](C)CC[C@@H]1[C@@]24OO3` [artemisone, 4-[(1R,4S,5R,8S,9R,10R,12R,13R)-1,5,9-trimethyl-11,14,15,16-tetraoxatetracyclo-hexadecan-10-yl]-1,4-thiazinane1,1-dioxide], the “degradation in aqueous medium” value in data set [1] (pH 3) was “complete degradation was observed within one week”. The “intact compound remained after one month” value in data set [1] (pH 5) is 20%; in data set [1] (pH 7.4), 75%. Moreover, the “reduction of worm load” value in the data set on S. mansoni (setting [7]) is listed as “more than 90%”. The “higher absorption of artemisone compared to an aqueous vehicle containing 10% DMSO” value in data set [2] was 5.57 fold. In addition, the “concentration at which parasitaemia was completely blocked” value in data set [3] was “below 11 ng/mL”. In addition, the ED50 in data set [3] (parasitaemia by Giemsa smears) is 1 to 2 ng/mL. In addition, the aqueous solubility in data set [4] is 0.089 mg/mL (≈ 0.222 mM). Also, the solubility at 24 h was 55 mg/mL (≈ 137 mM) in data set [5] (oil or lipid, in Polysorb ID 46, 25 °C); 62.5 mg/mL (≈ 156 mM) in data set [5] (oil or lipid, in medium chain mono- and diglycerides (Capmul MCM), 25 °C); 22.5 mg/mL (≈ 56 mM) in data set [5] (oil or lipid, in medium chain triglycerides (MCT), 25 °C); over 100 mg/mL in data set [5] (organic solvent or mixture, in DMF, 25 °C); over 100 mg/mL in data set [5] (organic solvent or mixture, in DMSO, 25 °C); over 100 mg/mL in data set [5] (organic solvent or mixture, in acetone, 25 °C). Besides, the solubility at 24 h is over 100 mg/mL in data set [5] (organic solvent or mixture, in dichloromethane, 25 °C); 30 mg/mL (≈ 74.7 mM) in data set [5] (organic solvent or mixture, in ethanol, 25 °C); 0.8 mg/mL (≈ 1.99 mM) in data set [5] (organic solvent or mixture, in hexane, 25 °C); 50 mg/mL (≈ 125 mM) in data set [5] (organic solvent or mixture, in methanol, 25 °C); 8.5 mg/mL (≈ 21.2 mM) in data set [5] (organic solvent or mixture, in propylene glycol, 25 °C). Moreover, in data set [6], the “artemisone recovered after three months” value is listed as 51.5 ± 0.4%.

On to `CO[C@H]1O[C@@H]2O[C@@]3(C)CC[C@H]4[C@H](C)CC[C@@H]([C@H]1C)[C@@]24OO3` [artemether], for which the “reduction of worm load” value in the data set with S. mansoni (setting [7]) was “more than 90%”.

Take `C[C@H]1[C@H](N2CCSCC2)O[C@@H]2O[C@@]3(C)CC[C@H]4[C@H](C)CC[C@@H]1[C@@]24OO3` [artemiside]: in the data set on S. mansoni (setting [7]), the “reduction of worm load” value is recorded as “more than 90%”.

`C[C@H]1[C@H](OC(=O)CCC(=O)O)O[C@@H]2O[C@@]3(C)CC[C@H]4[C@H](C)CC[C@@H]1[C@@]24OO3` [artesunate]: the “reduction of worm load” value with S. mansoni (single oral dose 400 mg/kg in 3% ethanol and 7% Tween 80, 21 days post-infection) is 66%.
